This note sets out measurements from PubChem BioAssay AID652002 (Sanford-Burnham Center for Chemical Genomics, 2013).

Active and inactive are the calls of the source. No rule for the calls is given here.

One experiment addresses NB7+Caspase-8. The experiment is described as follows: compound enhancement of TRAIL-induced cell killing – NB7 cells plus caspase-8, luminescence, panel, dose response (AID 652002). Conditions: NB7 neuroblastoma +caspase-8, TRAIL sensitization, luminescence viability, with TRAIL.
Experiment [1] deals with Tumor necrosis factor receptor superfamily member 10B (Homo sapiens) (UniProt O14763). Described as above. The following applies: NB7 neuroblastoma +caspase-8, TRAIL sensitization, luminescence viability; NB7+Caspase-8; with TRAIL, mean of runs.
Assay in experiment [2]: as above
Conditions: NB7 neuroblastoma +caspase-8, no TRAIL, compound-alone cytotoxicity counter-screen, luminescence viability, NB7+Caspase-8. A general note: The purpose of a counterscreen is to sort out artefacts and off-target activity.

[3] abbreviates: run 1, single replicate panel EC50.
The mark [4] stands for this setting: run 2, single replicate panel EC50.

Chain of Tumor necrosis factor receptor superfamily member 10B (Homo sapiens) (O14763 whole entry, looked up): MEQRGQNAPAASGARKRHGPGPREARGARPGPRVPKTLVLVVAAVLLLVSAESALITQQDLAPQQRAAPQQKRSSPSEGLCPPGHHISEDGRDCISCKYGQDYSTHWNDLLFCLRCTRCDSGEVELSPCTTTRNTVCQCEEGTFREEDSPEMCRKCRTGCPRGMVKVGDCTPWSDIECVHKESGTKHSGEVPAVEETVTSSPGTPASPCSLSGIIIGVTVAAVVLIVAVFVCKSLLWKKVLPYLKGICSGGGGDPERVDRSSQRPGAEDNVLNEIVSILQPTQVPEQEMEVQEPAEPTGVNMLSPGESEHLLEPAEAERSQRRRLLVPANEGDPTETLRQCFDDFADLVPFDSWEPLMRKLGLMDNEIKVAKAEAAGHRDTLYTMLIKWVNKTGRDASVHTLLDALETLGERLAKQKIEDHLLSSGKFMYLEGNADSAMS

As for `CCOc1ccc(NC(=O)Nc2cccs2)cc1`, the EC50 – broadly, the concentration that produces a half-maximal response – at NB7+Caspase-8 (setting [3]) is over 12.5 µM; on NB7+Caspase-8 (setting [4]), 6.86 µM; in experiment [2] (setting [3]), 10.7 µM; in experiment [2] (setting [4]), 6.47 µM. Besides, the EC50 entry in experiment [1] and in experiment [2] (mean of runs) was “inactive” each time.
For the compound `NNC(=O)C1CCCn2c1nc1sc3c(c1c2=O)CCCC3` (stereo not drawn), the EC50 is over 12.5 µM on NB7+Caspase-8 (setting [3]); over 12.5 µM on NB7+Caspase-8 (setting [4]); > 12.5 µM (inactive) in experiment [1]; > 12.5 µM (inactive) in experiment [2] (mean of runs); over 12.5 µM in experiment [2] (setting [3]); over 12.5 µM in experiment [2] (setting [4]).
With `O=C(c1cnc(Cl)c(Cl)c1)N1CCN(S(=O)(=O)c2ccc3ccccc3c2)CC1`, the EC50 on NB7+Caspase-8 (setting [3]) is over 12.5 µM; at NB7+Caspase-8 (setting [4]) it was over 12.5 µM; in experiment [1], > 12.5 µM (inactive); in experiment [2] (mean of runs), > 12.5 µM (inactive); in experiment [2] (setting [3]) it was over 12.5 µM; in experiment [2] (setting [4]), over 12.5 µM.
